Assay results published in article PMC5069568 (Diabetes, Obesity & Metabolism, 2016).

Legend:
Assay type in all cases: in vivo, human
[1] = test system: obese or overweight adults; experiment: Exposure–body weight loss analysis, clinical Trials 1–3; details: Trial 1, liraglutide 3.0 mg, overall female population
[2] = test system: obese or overweight adults with type 2 diabetes; experiment: Exposure–HbA1c analysis, Trial 2; details: Trial 2, type 2 diabetes, corresponds to ∼500 nM × h
[3] = test system: obese or overweight adults; experiment: Exposure–safety outcome analyses

**Q.** Which results are given for `CCCCCCCCCCCCCCCC(=O)N[C@@H](CCC(=O)NCCCC[C@H](NC(=O)[C@H](C)NC(=O)[C@H](C)NC(=O)[C@H](CCC(N)=O)NC(=O)CNC(=O)[C@H](CCC(=O)O)NC(=O)[C@H](CC(C)C)NC(=O)[C@H](Cc1ccc(O)cc1)NC(=O)[C@H](CO)NC(=O)[C@H](CO)NC(=O)[C@@H](NC(=O)[C@H](CC(=O)O)NC(=O)[C@H](CO)NC(=O)[C@@H](NC(=O)[C@H](Cc1ccccc1)NC(=O)[C@@H](NC(=O)CNC(=O)[C@H](CCC(=O)O)NC(=O)[C@H](C)NC(=O)[C@@H](N)Cc1cnc[nH]1)[C@@H](C)O)[C@@H](C)O)C(C)C)C(=O)N[C@@H](CCC(=O)O)C(=O)N[C@@H](Cc1ccccc1)C(=O)N[C@H](C(=O)N[C@@H](C)C(=O)N[C@@H](Cc1c[nH]c2ccccc12)C(=O)N[C@@H](CC(C)C)C(=O)N[C@H](C(=O)N[C@@H](CCCNC(=N)N)C(=O)NCC(=O)N[C@@H](CCCNC(=N)N)C(=O)NCC(=O)O)C(C)C)[C@@H](C)CC)C(=O)O` [liraglutide, Liraglutide]?
**A.** weight loss [1]: 9.3 kg; weight loss from baseline [1]: 9.2%; liraglutide plasma concentration at which HbA1c reduction plateaued [2]: ~21 nM; effect on serum calcitonin levels ([3]; all three trials, change from baseline over all exposure quantiles): did not result in elevated serum calcitonin levels; increase in mean resting pulse versus placebo ([3]; liraglutide-treated individuals, doses 1.2–3.0 mg, Trials 1–3): 2–3 beats per min
